Laboratory results as given in ChEMBL document CHEMBL1275533, “In vitro antibacterial activity of vertilmicin and its susceptibility to modifications by the recombinant AAC6'-APH2'' enzyme” (2008).
Calls of active or inactive are those of the source. No cut-off for these calls is given here.

What was measured:
Citrobacter koseri [1] = experiment: Antibacterial activity against non-gentamicin-resistant Citrobacter diversus clinical isolate after 18 hrs by agar dilution method; assay type: functional
Providencia rettgeri [2] = experiment: Antibacterial activity against non-gentamicin-resistant Proteus rettgeri clinical isolate after 18 hrs by agar dilution method; assay type: functional
Klebsiella aerogenes [3] = experiment: Antibacterial activity against non-gentamicin-resistant Enterobacter aerogenes clinical isolate after 18 hrs by agar dilution method; assay type: functional
Proteus mirabilis [4] = experiment: Antibacterial activity against gentamicin-resistant Proteus mirabilis clinical isolate after 18 hrs by agar dilution method; assay type: functional
Citrobacter freundii [5] = experiment: Antibacterial activity against non-gentamicin-resistant Citrobacter freundii clinical isolate assessed as susceptible isolates after 18 hrs by agar dilution method; assay type: functional
Citrobacter koseri [6] = experiment: Antibacterial activity against gentamicin-resistant Citrobacter diversus clinical isolate after 18 hrs by agar dilution method; assay type: functional
Pseudomonas sp. [7] = experiment: Antibacterial activity against non-gentamicin-resistant Pseudomonas spp. clinical isolate assessed as susceptible isolates after 18 hrs by agar dilution method; assay type: functional
[8] = tested on: Haemophilus parainfluenzae; experiment: Antibacterial activity against non-gentamicin-resistant Haemophilus parainfluenzae clinical isolate after 18 hrs by agar dilution method; assay type: functional
Klebsiella aerogenes [9] = experiment: Antibacterial activity against gentamicin-resistant Enterobacter aerogenes clinical isolate assessed as susceptible isolates after 18 hrs by agar dilution method; assay type: functional
Enterobacter cloacae [10] = experiment: Antibacterial activity against gentamicin-resistant Enterobacter cloacae clinical isolate assessed as susceptible isolates after 18 hrs by agar dilution method; assay type: functional
Haemophilus influenzae [11] = experiment: Antibacterial activity against non-gentamicin-resistant Haemophilus influenzae clinical isolate assessed as susceptible isolates after 18 hrs by agar dilution method; assay type: functional, organism-based
Proteus mirabilis [12] = experiment: Antibacterial activity against gentamicin-resistant Proteus mirabilis clinical isolate assessed as susceptible isolates after 18 hrs by agar dilution method; assay type: functional
Staphylococcus aureus [13] = experiment: Antibacterial activity against non-gentamicin-resistant Staphylococcus aureus clinical isolate after 18 hrs by agar dilution method; assay type: functional
Citrobacter freundii [14] = experiment: Antibacterial activity against gentamicin-resistant Citrobacter freundii clinical isolate after 18 hrs by agar dilution method; assay type: functional
Haemophilus influenzae [15] = experiment: Antibacterial activity against non-gentamicin-resistant Haemophilus influenzae clinical isolate after 18 hrs by agar dilution method; assay type: functional
Klebsiella aerogenes [16] = experiment: Antibacterial activity against non-gentamicin-resistant Enterobacter aerogenes clinical isolate assessed as susceptible isolates after 18 hrs by agar dilution method; assay type: functional
Staphylococcus aureus [17] = experiment: Antibacterial activity against gentamicin-resistant Staphylococcus aureus clinical isolate after 18 hrs by agar dilution method; assay type: functional
Enterobacter cloacae [18] = experiment: Antibacterial activity against gentamicin-resistant Enterobacter cloacae clinical isolate after 18 hrs by agar dilution method; assay type: functional
[19] = tested on: Acinetobacter calcoaceticus; experiment: Antibacterial activity against non-gentamicin-resistant Acinetobacter calcoaceticus clinical isolate assessed as susceptible isolates after 18 hrs by agar dilution method; assay type: functional
Staphylococcus aureus [20] = experiment: Antibacterial activity against non-gentamicin-resistant Staphylococcus aureus clinical isolate assessed as susceptible isolates after 18 hrs by agar dilution method; assay type: functional
Pseudomonas aeruginosa [21] = experiment: Antibacterial activity against gentamicin-resistant Pseudomonas aeruginosa clinical isolate after 18 hrs by agar dilution method; assay type: functional
Pseudomonas aeruginosa [22] = experiment: Antibacterial activity against non-gentamicin-resistant Pseudomonas aeruginosa clinical isolate after 18 hrs by agar dilution method; assay type: functional
Enterococcus faecalis [23] = experiment: Antibacterial activity against gentamicin-resistant Enterococcus faecalis clinical isolate assessed as susceptible isolates after 18 hrs by agar dilution method; assay type: functional, organism-based
Serratia marcescens = experiment: Antibacterial activity against gentamicin-resistant Serratia marcescens clinical isolate after 18 hrs by agar dilution method; assay type: functional
Escherichia coli [24] = experiment: Antibacterial activity against non-gentamicin-resistant Escherichia coli clinical isolate assessed as susceptible isolates after 18 hrs by agar dilution method; assay type: functional
Pseudomonas aeruginosa [25] = experiment: Antibacterial activity against non-gentamicin-resistant Pseudomonas aeruginosa clinical isolate assessed as susceptible isolates after 18 hrs by agar dilution method; assay type: functional
Pseudomonas sp. [26] = experiment: Antibacterial activity against gentamicin-resistant Pseudomonas spp. clinical isolate after 18 hrs by agar dilution method; assay type: functional
Escherichia coli [27] = experiment: Antibacterial activity against gentamicin-resistant Escherichia coli clinical isolate assessed as susceptible isolates after 18 hrs by agar dilution method; assay type: functional
Enterobacter cloacae [28] = experiment: Antibacterial activity against non-gentamicin-resistant Enterobacter cloacae clinical isolate assessed as susceptible isolates after 18 hrs by agar dilution method; assay type: functional
Pseudomonas sp. [29] = experiment: Antibacterial activity against non-gentamicin-resistant Pseudomonas spp. clinical isolate after 18 hrs by agar dilution method; assay type: functional
[30] = tested on: Staphylococcus epidermidis; experiment: Antibacterial activity against gentamicin-resistant Staphylococcus epidermidis clinical isolate after 18 hrs by agar dilution method; assay type: functional
[31] = tested on: Staphylococcus epidermidis; experiment: Antibacterial activity against gentamicin-resistant Staphylococcus epidermidis clinical isolate assessed as susceptible isolates after 18 hrs by agar dilution method; assay type: functional
[32] = tested on: Acinetobacter calcoaceticus; experiment: Antibacterial activity against non-gentamicin-resistant Acinetobacter calcoaceticus clinical isolate after 18 hrs by agar dilution method; assay type: functional
Providencia rettgeri [33] = experiment: Antibacterial activity against non-gentamicin-resistant Proteus rettgeri clinical isolate assessed as susceptible isolates after 18 hrs by agar dilution method; assay type: functional
Morganella morganii [34] = experiment: Antibacterial activity against gentamicin-resistant Morganella morganii clinical isolate after 18 hrs by agar dilution method; assay type: functional
Pseudomonas aeruginosa [35] = experiment: Antibacterial activity against gentamicin-resistant Pseudomonas aeruginosa clinical isolate assessed as susceptible isolates after 18 hrs by agar dilution method; assay type: functional
Staphylococcus aureus [36] = experiment: Antibacterial activity against gentamicin-resistant Staphylococcus aureus clinical isolate assessed as susceptible isolates after 18 hrs by agar dilution method; assay type: functional
Providencia rettgeri [37] = experiment: Antibacterial activity against gentamicin-resistant Proteus rettgeri clinical isolate assessed as susceptible isolates after 18 hrs by agar dilution method; assay type: functional
Escherichia coli [38] = experiment: Antibacterial activity against non-gentamicin-resistant Escherichia coli clinical isolate after 18 hrs by agar dilution method; assay type: functional
Enterococcus faecalis [39] = experiment: Antibacterial activity against gentamicin-resistant Enterococcus faecalis clinical isolate after 18 hrs by agar dilution method; assay type: functional
Morganella morganii [40] = experiment: Antibacterial activity against gentamicin-resistant Morganella morganii clinical isolate assessed as susceptible isolates after 18 hrs by agar dilution method; assay type: functional
Citrobacter koseri [41] = experiment: Antibacterial activity against non-gentamicin-resistant Citrobacter diversus clinical isolate assessed as susceptible isolates after 18 hrs by agar dilution method; assay type: functional
Citrobacter freundii [42] = experiment: Antibacterial activity against non-gentamicin-resistant Citrobacter freundii clinical isolate after 18 hrs by agar dilution method; assay type: functional
Pseudomonas sp. [43] = experiment: Antibacterial activity against gentamicin-resistant Pseudomonas spp. clinical isolate assessed as susceptible isolates after 18 hrs by agar dilution method; assay type: functional

GENTAMICIN
MIC50 (Citrobacter koseri [1]): 0.25 µg/mL
MIC90 (Citrobacter koseri [1]): 0.5 µg/mL
MIC50 (Providencia rettgeri [2]): 4 µg/mL
MIC90 (Providencia rettgeri [2]): 8 µg/mL
MIC50 (Klebsiella aerogenes [3]): 0.25 µg/mL
MIC90 (Klebsiella aerogenes [3]): 0.5 µg/mL
MIC50 (Proteus mirabilis [4]): 128 µg/mL
MIC90 (Proteus mirabilis [4]): > 128 µg/mL
Activity (Citrobacter freundii [5]): 100%
MIC50 (Citrobacter koseri [6]): > 128 µg/mL
MIC90 (Citrobacter koseri [6]): > 128 µg/mL
Activity (Pseudomonas sp. [7]): 81.8%
MIC50 [8]: 2 µg/mL
MIC90 [8]: 4 µg/mL
Activity (Klebsiella aerogenes [9]): 0%
Activity (Enterobacter cloacae [10]): 0%
Activity (Haemophilus influenzae [11]): inactive
Activity (Proteus mirabilis [12]): 0%
MIC50 (Staphylococcus aureus [13]): 0.125 µg/mL
MIC90 (Staphylococcus aureus [13]): 8 µg/mL
MIC50 (Citrobacter freundii [14]): 64 µg/mL
MIC90 (Citrobacter freundii [14]): 128 µg/mL
MIC50 (Haemophilus influenzae [15]): 2 µg/mL
MIC90 (Haemophilus influenzae [15]): 2 µg/mL
Activity (Klebsiella aerogenes [16]): 98.1%
MIC50 (Staphylococcus aureus [17]): 32 µg/mL
MIC90 (Staphylococcus aureus [17]): 128 µg/mL
MIC50 (Enterobacter cloacae [18]): > 128 µg/mL
MIC90 (Enterobacter cloacae [18]): > 128 µg/mL
Activity [19]: 98%
Activity (Staphylococcus aureus [20]): 85.7%
MIC50 (Pseudomonas aeruginosa [21]): > 128 µg/mL
MIC90 (Pseudomonas aeruginosa [21]): > 128 µg/mL
MIC50 (Pseudomonas aeruginosa [22]): 4 µg/mL
MIC90 (Pseudomonas aeruginosa [22]): 8 µg/mL
Activity (Enterococcus faecalis [23]): inactive
MIC50 (Serratia marcescens): > 128 µg/mL
MIC90 (Serratia marcescens): > 128 µg/mL
Activity (Escherichia coli [24]): 100%
Activity (Pseudomonas aeruginosa [25]): 65.6%
MIC50 (Pseudomonas sp. [26]): 128 µg/mL
MIC90 (Pseudomonas sp. [26]): > 128 µg/mL
Activity (Escherichia coli [27]): 0%
Activity (Enterobacter cloacae [28]): 98.2%
MIC50 (Pseudomonas sp. [29]): 2 µg/mL
MIC90 (Pseudomonas sp. [29]): 8 µg/mL
MIC50 [30]: 16 µg/mL
MIC90 [30]: > 128 µg/mL
Activity [31]: 0%
MIC50 [32]: 0.25 µg/mL
MIC90 [32]: 2 µg/mL
Activity (Providencia rettgeri [33]): 84.6%
MIC50 (Morganella morganii [34]): 128 µg/mL
MIC90 (Morganella morganii [34]): > 128 µg/mL
Activity (Pseudomonas aeruginosa [35]): 0%
Activity (Staphylococcus aureus [36]): 0%
Activity (Providencia rettgeri [37]): 0%
MIC (Escherichia coli [38]): 0.25 µg/mL
MIC90 (Escherichia coli [38]): 1 µg/mL
MIC50 (Enterococcus faecalis [39]): > 128 µg/mL
MIC90 (Enterococcus faecalis [39]): > 128 µg/mL
Activity (Morganella morganii [40]): 0%
Activity (Citrobacter koseri [41]): 100%
MIC50 (Citrobacter freundii [42]): 0.25 µg/mL
MIC90 (Citrobacter freundii [42]): 1 µg/mL
Activity (Pseudomonas sp. [43]): 0%
